Read-outs that look alike come from different tables or passages of the source.
How the values were obtained:
Test in all cases: Test C pre/postemergence
Assay type in all cases: in vivo
[1] = test system: johnsongrass (Sorghum halepense); settings: Sorghum halepense, read-out: Plant response rating, Johnsongrass; for pest or weed control at 250 g/ha: 250 g ai/ha
Outline: (§1)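 Injury scored visually 12–14 days after application on 0–100 scale (100 = complete control), relative to controls. Compounds, formulated with surfactant in non-phytotoxic solvent, applied to soil at planting (pre) or to 1- to 4-leaf plants 2–18 cm tall (post) in greenhouse.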

[2] = test system: morningglory (Ipomoea coccinea); settings: Ipomoea; for pest or weed control at 31 g/ha: 31 g ai/ha; for pest or weed control at 62 g/ha: 62 g ai/ha; for pest or weed control at 125 g/ha: 125 g ai/ha; for pest or weed control at 250 g/ha: 250 g ai/ha
Outline: as §1

corn (Zea mays) = settings: Zea mays; for Corn plant response rating (crop injury, 0 = no effect, 100 = complete kill) at 31 g/ha: 31 g ai/ha; for Corn plant response rating (crop injury, 0 = no effect, 100 = complete kill) at 62 g/ha: 62 g ai/ha; for Corn plant response rating (crop injury, 0 = no effect, 100 = complete kill) at 250 g/ha: 250 g ai/ha, scale 0 to 100
Outline: as §1

[3] = test system: cocklebur (Xanthium strumarium); settings: Xanthium strumarium; for pest or weed control at 31 g/ha: 31 g ai/ha; for pest or weed control at 125 g/ha: 125 g ai/ha; for pest or weed control at 250 g/ha: 250 g ai/ha
Outline: as §1

[4] = test system: crabgrass (Digitaria sanguinalis); settings: Digitaria sanguinalis; for pest or weed control at 31 g/ha: 31 g ai/ha; for pest or weed control at 62 g/ha: 62 g ai/ha; for pest or weed control at 125 g/ha: 125 g ai/ha; for pest or weed control at 250 g/ha: 250 g ai/ha
Outline: as §1

[5] = test system: common (oilseed) sunflower (Helianthus annuus); settings: Helianthus annuus, pre-emergence, Preemergence, read-out: Plant response rating, Sunflower
Outline: as §1

[6] = test system: eastern black nightshade (Solanum ptycanthum); settings: Solanum, pre-emergence, Preemergence, read-out: Plant response rating, Nightshade
Outline: as §1

[7] = post-emergence, Postemergence, scale 0 to 100 (0 no effect, 100 complete control), read-out: Morningglory plant response rating
[8] = pre-emergence, Preemergence, scale 0 to 100, 0 no effect, 100 complete control, read-out: Plant response rating, Morningglory
[9] = pre-emergence, Preemergence, scale 0 to 100, read-out: Plant response rating, Morningglory
[10] = pre-emergence, Preemergence, scale 0 to 100, 0 no effect, 100 complete control, read-out: Plant response rating, Corn
[11] = pre-emergence, Preemergence, scale 0 to 100, read-out: Plant response rating, Cocklebur
[12] = post-emergence, Postemergence, scale 0 to 100 (0 no effect, 100 complete control), read-out: Crabgrass plant response rating
[13] = pre-emergence, Preemergence, scale 0 to 100, 0 no effect, 100 complete control, read-out: Plant response rating, Crabgrass
[14] = pre-emergence, Preemergence, scale 0 to 100, read-out: Plant response rating, Crabgrass
[15] = 31 g ai/ha, scale 0 to 100, 0 no effect, 100 complete control
[16] = 62 g ai/ha, scale 0 to 100, 0 no effect, 100 complete control

COC(=O)c1nc(C2CC2)nc(N)c1Br [Compound 2, methyl 6-amino-5-bromo-2-cyclopropyl-4-pyrimidinecarboxylate]
pest or weed control at 250 g/ha ([1]; post-emergence, Postemergence, scale 0 to 100): 60% | pest or weed control at 31 g/ha ([1]; pre-emergence, Preemergence, 31 g ai/ha, scale 0 to 100, 0 no effect, 100 complete control): 0% | pest or weed control at 62 g/ha ([1]; pre-emergence, Preemergence, 62 g ai/ha, scale 0 to 100, 0 no effect, 100 complete control): 0% | pest or weed control at 125 g/ha ([1]; pre-emergence, Preemergence, 125 g ai/ha, scale 0 to 100): 0% | pest or weed control at 250 g/ha ([1]; pre-emergence, Preemergence, scale 0 to 100): 40% | pest or weed control at 31 g/ha ([2]; post-emergence, Postemergence, read-out: Plant response rating (scale of 0 to 100), Morningglory): 70% | pest or weed control at 62 g/ha [2, 7]: 75% | pest or weed control at 125 g/ha [2, 7]: 100% | pest or weed control at 250 g/ha ([2]; post-emergence, Postemergence, scale 0 to 100, read-out: Plant response rating, Morningglory): 100% | pest or weed control at 31 g/ha [2, 8]: 100% | pest or weed control at 62 g/ha [2, 8]: 100% | pest or weed control at 125 g/ha [2, 9]: 100% | pest or weed control at 250 g/ha [2, 9]: 100% | Corn plant response rating (crop injury, 0 = no effect, 100 = complete kill) at 31 g/ha (corn (Zea mays); post-emergence, Postemergence, read-out: Plant response rating (scale of 0 to 100), Corn): 15% | Corn plant response rating (crop injury, 0 = no effect, 100 = complete kill) at 62 g/ha (corn (Zea mays); post-emergence, Postemergence, scale 0 to 100 (0 no effect, 100 complete control), read-out: Corn plant response rating): 15% | Corn plant response rating (crop injury, 0 = no effect, 100 = complete kill) at 125 g/ha (corn (Zea mays); post-emergence, Postemergence, 125 g ai/ha, scale 0 to 100 (0 no effect, 100 complete control), read-out: Corn plant response rating): 20% | Corn plant response rating (crop injury, 0 = no effect, 100 = complete kill) at 250 g/ha (corn (Zea mays); post-emergence, Postemergence): 30% | Corn plant response rating (crop injury, 0 = no effect, 100 = complete kill) at 31 g/ha (corn (Zea mays); [10]): 0% | Corn plant response rating (crop injury, 0 = no effect, 100 = complete kill) at 62 g/ha (corn (Zea mays); [10]): 0% | Corn plant response rating (crop injury, 0 = no effect, 100 = complete kill) at 250 g/ha (corn (Zea mays); pre-emergence, Preemergence): 0% | pest or weed control at 31 g/ha ([3]; post-emergence, Postemergence, read-out: Plant response rating (scale of 0 to 100), Cocklebur): 65% | pest or weed control at 62 g/ha ([3]; post-emergence, Postemergence, 62 g ai/ha, scale 0 to 100 (0 no effect, 100 complete control), read-out: Cocklebur plant response rating): 75% | pest or weed control at 125 g/ha ([3]; post-emergence, Postemergence, scale 0 to 100 (0 no effect, 100 complete control), read-out: Cocklebur plant response rating): 85% | pest or weed control at 250 g/ha ([3]; post-emergence, Postemergence, scale 0 to 100, read-out: Plant response rating, Cocklebur): 85% | pest or weed control at 31 g/ha ([3]; pre-emergence, Preemergence, scale 0 to 100, 0 no effect, 100 complete control, read-out: Plant response rating, Cocklebur): 60% | pest or weed control at 125 g/ha [3, 11]: 80% | pest or weed control at 250 g/ha [3, 11]: 100% | pest or weed control at 31 g/ha ([4]; post-emergence, Postemergence, read-out: Plant response rating (scale of 0 to 100), Crabgrass): 40% | pest or weed control at 62 g/ha [4, 12]: 55% | pest or weed control at 125 g/ha [4, 12]: 60% | pest or weed control at 250 g/ha ([4]; post-emergence, Postemergence, scale 0 to 100, read-out: Plant response rating, Crabgrass): 70% | pest or weed control at 31 g/ha [4, 13]: 0% | pest or weed control at 62 g/ha [4, 13]: 0% | pest or weed control at 125 g/ha [4, 14]: 0% | pest or weed control at 250 g/ha [4, 14]: 50% | pest or weed control at 31 g/ha [5, 15]: 20% | pest or weed control at 62 g/ha [5, 16]: 100% | pest or weed control at 125 g/ha ([5]; 125 g ai/ha, scale 0 to 100): 100% | pest or weed control at 250 g/ha ([5]; 250 g ai/ha, scale 0 to 100): 100% | pest or weed control at 31 g/ha [6, 15]: 0% | pest or weed control at 62 g/ha [6, 16]: 20% | pest or weed control at 125 g/ha ([6]; 125 g ai/ha, scale 0 to 100): 100% | pest or weed control at 250 g/ha ([6]; 250 g ai/ha, scale 0 to 100): 100%

From patent US8802597B2, “Herbicidal pyrimidines” (E I du Pont de Nemours and Company, priority 2003, dated 2014)
